Results on seven compounds are retold here after publication PMC12034907 (Journal of Clinical Pharmacology, 2024).

“Also recorded” adds a separate entry of the source. Where two headings read alike, the source gives them in different places. Marks after values point to notes of the source that are not given here.

The test system of series [1] is CYP3A4.
Series [2] is described as follows: Clinical DDI study: safety and tolerability. Conditions: for AEs leading to death / AEs leading to treatment discontinuation / Related AEs / Serious AEs / Severity of AE: Mild / Severity of AE: Moderate / Severity of AE: Severe / AEs: by period, safety population; for AEs: participants who experienced AEs. It is filed as in vivo, human.
The subject of a further series is CYP2C19. Conditions: liver metabolism; cited from earlier work.
Series [3] concerns CYP3A4. Conditions: liver metabolism; cited from earlier work.
A further series deals with CYP2C9. Conditions: liver metabolism; cited from earlier work.
For series [4] the following is noted: cited from earlier work.
Another series has as its system CYP3A. Conditions: cited from earlier work; for midazolam exposure relative to baseline exposure: studies with CYP3A inducers; for effect of CYP3A inhibitor on midazolam exposure: interaction studies.
[5] abbreviates: midazolam 5 mg + mavacamten 15 mg on day 17, geometric mean (geometric CV%).
[6] abbreviates: midazolam 5 mg oral alone (day 1), geometric mean (geometric CV%).
Where [7] appears, read: with mavacamten vs midazolam alone.

Take `OCc1ncc2n1-c1ccc(Cl)cc1C(c1ccccc1F)=NC2` [1′‐Hydroxymidazolam, 1′‐hydroxymidazolam]: the “tmax, median (range)” value (midazolam 5 mg + mavacamten 15 mg on day 17, n = 12) was 0.51 (0.50‐1.0) h. Further, under setting [5], the AUC0-inf was 47.76 (36.3) (n = 7) ^b ng∙h/mL and the t1/2 is reported as 5.22 (29.9) (n = 7) ^b h. Also, the “tmax, median (range)” value (midazolam 5 mg oral alone (day 1), n = 13) was 1.00 (0.50‐2.08) h. For the same compound, the AUC0-last (midazolam 5 mg oral alone (day 1), n = 13, geometric mean (geometric CV%)) is listed as 38.63 (22.2) ng∙h/mL. Under setting [6], the AUC0-inf was 41.47 (24.1) (n = 10) ^b ng∙h/mL and the t1/2 was 6.48 (24.7) (n = 10) ^b h. Also, in the series with CYP3A4 [1] (setting [7]), the “increase in AUC0-inf” value is on record as 20%, the “increase in AUC0-last” value came out at 11% and the “increase in Cmax” value is on record as 28%.
On to `CC(C)n1c(=O)cc(N[C@@H](C)c2ccccc2)[nH]c1=O` [Mavacamten], for which, in series [2], the “AEs leading to death” value is recorded as 0 n (%), the “AEs leading to treatment discontinuation” value was 0 n (%), the “Related AEs” value is reported as 5 (38.5) n (%) and the “Serious AEs” value is listed as 0 n (%). For the same compound, in series [2], the “Severity of AE: Mild” value is reported as 9 (69.2) n (%), the “Severity of AE: Moderate” value is 1 (7.7) n (%), the “Severity of AE: Severe” value was 0 n (%) and the AEs is on record as 9 (69.2) n (%). Also, the tolerability result in series [2] (healthy participants) is recorded as “well tolerated”. Further, the “share of metabolism by CYP2C19” value with CYP2C19 is 74%. In addition, the “share of metabolism by CYP3A4” value in the series on CYP3A4 [3] is recorded as 18%. Moreover, the “share of metabolism by CYP2C9” value in the series with CYP2C9 is given as 8%. In addition, in series [4], the estimated oral bioavailability result is “at least 85%” and the “median time to maximum plasma concentration (tmax)” value is 1 to 2 h. The “effect of mavacamten on midazolam exposure (CYP3A4 induction)” value in the series with CYP3A4 [1] (clinically relevant mavacamten exposures, healthy participants) is recorded as “negligible effect; also recorded: did not meet the criteria for induction”.
As a reminder, the Tmax is the time at which the peak concentration occurs. One may read the AUC(0-t) as exposure summed from dosing to a finite time, without extrapolation to infinity. Low readings indicate low exposure, high ones high exposure. As to `Cc1ncc2n1-c1ccc(Cl)cc1C(c1ccccc1F)=NC2` [Midazolam], in series [2], the “AEs leading to death” value is given as 0 n (%), the “AEs leading to treatment discontinuation” value is on record as 0 n (%), the “Related AEs” value is given as 2 (15.4) n (%) and the “Serious AEs” value is listed as 0 n (%). Further, in series [2], the “Severity of AE: Mild” value is recorded as 3 (23.1) n (%), the “Severity of AE: Moderate” value is 0 n (%), the “Severity of AE: Severe” value is on record as 0 n (%) and the AEs is 3 (23.1) n (%). The time of peak concentration (Tmax) (human, plasma, oral, tmax, midazolam alone or with mavacamten) was less than 1 h. Besides, the AUC(0-t) (human, plasma, po, 5 mg) is 51 ng·h/mL. Under setting [5], the t1/2 was 4.84 (34.4) (n = 9) ^a h. The t1/2 under setting [6] was 5.28 (39.3) h. For the same compound, in the series with CYP3A4 [1] (setting [7]), the “decrease in AUC0-inf” value is 13%, the “decrease in AUC0-last” value amounted to 24% and the “decrease in Cmax” value came to 7%.
For `NC(=O)N1c2ccccc2C=Cc2ccccc21` [carbamazepine], the “midazolam exposure relative to baseline exposure” value in the series on CYP3A is recorded as “below 10%”.
As to `CC(=O)N1CCN(c2ccc(OCC3COC(Cn4ccnc4)(c4ccc(Cl)cc4Cl)O3)cc2)CC1` (centres unmarked) [ketoconazole], the “effect of CYP3A inhibitor on midazolam exposure” value in the series on CYP3A was “increases in midazolam exposure”.
For the compound `O=C1NC(=O)C(c2ccccc2)(c2ccccc2)N1` [phenytoin], in the series with CYP3A, the “midazolam exposure relative to baseline exposure” value is “below 10%”.
Take `C[C@@H](c1ncncc1F)[C@](O)(Cn1cncn1)c1ccc(F)cc1F` [voriconazole]: in the series on CYP3A, the “effect of CYP3A inhibitor on midazolam exposure” value is recorded as “increases in midazolam exposure”.
